Test results taken from US9643964B2, “3-(2-aminopyrimidin-4-yl)-5-(3-hydroxypropynyl)-1H-pyrrolo[2,3-C]pyridine derivatives as NIK inhibitors for the treatment of cancer” (Janssen Pharmaceutica NV, priority 2013, dated 2017).

Legend:
[1] = tested on: L-363 cells; assay: Biological Assay C: antiproliferative activity on L-363 cells (CellTiter-Glo); type: cell-based, human; conditions: Homo sapiens, L-363, 72 h, 72 hr treatment; averaged values
Experimental: (§1) Determination of Antiproliferative Activity on LP-1, L-363 and JJN-3 Cells
(§2) All compounds tested were dissolved in DMSO and further dilutions were made in culture medium. Final DMSO concentration was 0.3% (v/v) in cell proliferation assays. Viability was assessed using CellTiter-Glo cell viability assay kit (Promega). The human LP-1, L-363 and JJN-3 cells (DSMZ) were cultured in RPMI 1640 medium supplemented with 2 mM L-glutamine, and 10% fetal calf serum (PAA). Cells were routinely kept as suspension cells at 37° C. in a humidified 5% CO2 atmosphere. Cells were passaged at a seeding density of 0.2×10^6/ml twice a week. Cells were seeded in black tissue culture treated 96-well plates (Perkin Elmer). Densities used for plating ranged from 2,000 to 6,000 cells per well in a total volume of 75 μl medium. After twenty four hours, drugs and/or solvents were added (25 μl) to a final volume of 100 μl. Following 72 hr of treatment plates were removed from the incubator and allowed to equilibrate to room temperature for approx 10 min. 100 μl CellTiter-Glo reagent was added to each well that was then covered (Perkin Elmer Topseal) and shaken on plate shaker for 10 min. Luminescence was measured on a HTS Topcount (Perkin Elmer). Within an experiment, the results for each treatment were the mean of 2 replicate wells. For initial screening purposes, compounds were tested using a 9 point dilution curve (serial 1:3 dilutions). For each experiment, controls (containing no drug) and a blank incubation (containing cells read at the time of compound addition) were run in parallel. The blank value was subtracted from all control and sample values. For each sample, the mean value for cell growth (in relative light units) was expressed as a percentage of the mean value for cell growth of the control.

[2] = molecular target: Recombinant Human NF-kappaB-Inducing Kinase (NIK/MAP3K14) (Homo sapiens, UniProt Q99558); assay: Biological Assay A2: inhibition of auto-phosphorylation of recombinant human NIK/MAP3K14 (AlphaScreen); type: biochemical; conditions: auto-phosphorylation; averaged over all measurements on all batches; read-out: αscreen IC50
Sequence of Recombinant Human NF-kappaB-Inducing Kinase (NIK/MAP3K14) (Q99558 whole entry): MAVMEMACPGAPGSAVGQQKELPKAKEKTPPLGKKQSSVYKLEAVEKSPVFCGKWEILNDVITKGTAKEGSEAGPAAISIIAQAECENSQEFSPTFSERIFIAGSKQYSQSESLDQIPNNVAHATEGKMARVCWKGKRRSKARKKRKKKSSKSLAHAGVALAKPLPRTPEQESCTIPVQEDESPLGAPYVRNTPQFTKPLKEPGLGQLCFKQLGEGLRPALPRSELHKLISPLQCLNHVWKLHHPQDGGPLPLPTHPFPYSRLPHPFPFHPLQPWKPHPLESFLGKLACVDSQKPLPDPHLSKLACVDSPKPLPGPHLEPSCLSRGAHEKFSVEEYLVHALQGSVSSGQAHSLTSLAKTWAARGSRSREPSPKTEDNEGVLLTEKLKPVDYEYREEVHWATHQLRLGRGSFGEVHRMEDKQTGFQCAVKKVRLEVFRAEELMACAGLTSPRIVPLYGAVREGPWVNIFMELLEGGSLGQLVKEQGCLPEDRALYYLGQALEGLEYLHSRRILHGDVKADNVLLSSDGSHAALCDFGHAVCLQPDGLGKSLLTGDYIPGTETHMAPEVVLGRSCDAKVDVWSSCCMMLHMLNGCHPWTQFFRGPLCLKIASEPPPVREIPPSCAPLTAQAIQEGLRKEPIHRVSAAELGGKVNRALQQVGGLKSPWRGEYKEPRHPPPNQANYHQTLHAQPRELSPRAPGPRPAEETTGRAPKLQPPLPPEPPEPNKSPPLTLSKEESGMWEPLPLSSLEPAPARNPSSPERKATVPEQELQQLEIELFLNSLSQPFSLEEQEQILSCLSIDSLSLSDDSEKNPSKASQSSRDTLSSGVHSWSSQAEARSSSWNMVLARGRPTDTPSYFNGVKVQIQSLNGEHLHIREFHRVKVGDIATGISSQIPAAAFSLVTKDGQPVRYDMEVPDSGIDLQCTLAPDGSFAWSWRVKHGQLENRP
Experimental: Inhibition of Auto-Phosphorylation of Recombinant Human NF-kappaB-Inducing Kinase (NIK/MAP3K14) Activity (AlphaScreen®)
NIK/MAP3K14 auto-phosphorylation activity was measured using the AlphaScreen® (αscreen) format (Perkin Elmer). All compounds tested were dissolved in dimethyl sulfoxide (DMSO) and further dilutions were made in assay buffer. Final DMSO concentration was 1% (v/v) in assays. Assay buffer was 50 mM Tris pH 7.5 containing 1 mM EGTA (ethylene glycol tetraacetic acid), 1 mM DTT (dithiothreitol), 0.1 mM Na3VO4, 5 mM MgCl2, 0.01% Tween 20. Assays were carried out in 384 well Alphaplates (Perkin Elmer). Incubations consisted of compound, 25 microM Adenosine-5′-triphosphate (ATP), and 0.2 nM NIK/MAP3K14. Incubations were initiated by addition of GST-tagged NIK/MAP3K14 enzyme, carried out for 1 h at 25° C. and terminated by addition of stop buffer containing anti-phospho-IKK Ser176/180 antibody. Protein A Acceptor and Glutathione-Donor beads were added before reading using an EnVision® Multilabel Plate Reader (Perkin Elmer). Signal obtained in the wells containing blank samples was subtracted from all other wells and IC50's were determined by fitting a sigmoidal curve to % inhibition of control versus Log10 compound concentration.

[3] = tested on: LP-1 cells; assay: Biological Assay C: antiproliferative activity on LP-1 cells (CellTiter-Glo); type: cell-based, human; conditions: Homo sapiens, LP-1, 72 h, 72 hr treatment; averaged values
Experimental: as §1, §2

[4] = tested on: JJN-3 cells; assay: Biological Assay C: antiproliferative activity on JJN-3 cells (CellTiter-Glo); type: cell-based, human; conditions: Homo sapiens, JJN-3, 72 h, 72 hr treatment; averaged values
Experimental: as §1, §2

| IC50 [2] [nM] | SMILES | EC50 [1] [nM] | EC50 [3] [nM] | EC50 [4] [nM] |
| --- | --- | --- | --- | --- |
| 44 | CNc1ncc(F)c(-c2cn(CCCOC)c3cnc(C#CC(C)(C)O)cc23)n1 [Compound 90] | 510 | 740 | 720 |
| 140 | COCCN1CCC(n2cc(-c3nc(N)ncc3F)c3cc(C#CC(C)(O)C4CC4)ncc32)CC1 (stereo not shown) [Compound 108] | 280 | 640 | 270 |
| 95 | CCN1CCC(n2cc(-c3nc(N)ncc3F)c3cc(C#CC(C)(O)C4CC4)ncc32)CC1 (stereo not shown) [Compound 106] | 90 | 340 | 120 |
| 100 | COCCCn1cc(-c2cc(C)nc(N)n2)c2cc(C#CC(C)(C)O)ncc21 [Compound 81] | 5900 | 28000 | 5700 |
| 98 | CCCN1CC(n2cc(-c3nc(N)ncc3F)c3cc(C#CC(C)(O)C4CC4)ncc32)C1 (stereo not shown) [Compound 139] | 160 | 340 | 220 |
| 31 | Nc1ncc(F)c(-c2cn(C3COC3)c3c(C4CC4)nc(C#CC4(O)CCCC4)cc23)n1 [Compound 94] | 200 | 2700 | 300 |
| 130 | CC(C)N1CCC(n2cc(-c3ccnc(N)n3)c3cc(C#CC(C)(C)O)ncc32)CC1 [Compound 78] | 410 | 2000 | 580 |
| 61 | CC(O)(C#Cc1cc2c(-c3nc(N)ncc3C(F)(F)F)cn(C3COC3)c2cn1)C1CC1 (stereo not shown) [Compound 100] | 1500 | 3000 | 1400 |
| 210 | CC(O)(C#Cc1cc2c(-c3nc(N)ncc3F)cn(C3CN(C4CCCC4)C3)c2cn1)C1CC1 (stereo not shown) [Compound 142] | 190 | 410 | 150 |
| 170 | COCCCn1cc(-c2nc(N)ncc2F)c2cc(C#CC(C)(O)C3CC3)nc(C(F)F)c21 (stereo not shown) [Compound 96] | 6600 | > 10000 | > 10000 |
| 110 | CN1CC(n2cc(-c3nc(N)ncc3C(F)(F)F)c3cc(C#CC(C)(O)C4CC4)ncc32)C1 (stereo not shown) [Compound 99] | 1100 | 2000 | 1100 |
| 38 | COC(C)(C)Cn1cc(-c2nc(N)ncc2F)c2cc(C#CC(C)(O)C3CC3)ncc21 (stereo not shown) [Compound 101] | 160 | 220 | 160 |
| 82 | [2H]C([2H])([2H])C(O)(C#Cc1cc2c(-c3nc(N)ncc3F)cn(C3CN(C4CC4)C3)c2cn1)C([2H])([2H])[2H] [Compound 160] | 93 | 210 | 110 |
| 120 | CCN1CC(n2cc(-c3nc(N)ncc3F)c3cc(C#CC(C)(O)C4CC4)ncc32)C1 (stereo not shown) [Compound 136] | 140 | 450 | 240 |
| 120 | Cn1cc(Cn2cc(-c3nc(N)ncc3F)c3cc(C#CC(C)(O)C4CC4)ncc32)cn1 (stereo not shown) [Compound 109] | 360 | 1200 | 460 |
| 110 | CCN1CCCC(n2cc(-c3nc(N)ncc3F)c3cc(C#CC(C)(O)C4CC4)ncc32)C1 (stereo not shown) [Compound 138] | 80 | 250 | 94 |
| 6.5 | CC(O)(C#Cc1cc2c(-c3nc(N)ncc3F)c[nH]c2cn1)C1CC1 (stereo not shown) [Compound 132] | 30 | 410 | 77 |
| 88 | CN1CCC(n2cc(-c3nc(N)ncc3F)c3cc(C#CC(C)(O)C4CC4)ncc32)C1 (stereo not shown) [Compound 107] | 57 | 150 | 78 |
| 210 | CC(C)n1cc(-c2nc(N)ncc2F)c2cc(C#CC3(O)CCN(C)C3=O)ncc21 (stereo not shown) [Compound 150] | 1500 | – | 1600 |

| IC50 [2] [nM] | SMILES | EC50 [1] [nM] | EC50 [3] [nM] | EC50 [4] [nM] |
| --- | --- | --- | --- | --- |
| 7 | COCCCn1cc(-c2nc(N)ncc2F)c2cc(C#CC3(O)CCC3)ncc21 [Compound 95] | 95 | 470 | 150 |
| 23 | CC1(Cn2cc(-c3nc(N)ncc3F)c3cc(C#CC(C)(O)C4CC4)ncc32)COC1 (stereo not shown) [Compound 129] | 150 | 920 | 210 |
| 76 | CC(C)(O)C#Cc1cc2c(-c3nc(N)ncc3F)cn(C3CN(C4CC4)C3)c2cn1 [Compound 166] | 60 | 180 | 96 |
| 66 | CCN1CCC(n2cc(-c3nc(N)ncc3F)c3cc(C#CC(C)(O)C4CC4)ncc32)C1 (stereo not shown) [Compound 141] | 56 | 320 | 96 |
| 22 | COc1cnc(N)nc1-c1cn(C(C)C)c2cnc(C#CC(C)(O)C3CC3)cc12 (stereo not shown) [Compound 149] | 22 | – | 38 |
| 140 | COCCN1CC(n2cc(-c3nc(N)ncc3F)c3cc(C#CC(C)(O)C4CC4)ncc32)C1 (stereo not shown) [Compound 155] | 380 | – | 400 |
| 130 | CCCCC(=O)NCCCn1cc(-c2ccnc(N)n2)c2cc(C#CC(C)(C)O)ncc21 [Compound 147] | 530 | – | 1400 |
| 64 | CC(=O)NCCCn1cc(-c2ccnc(N)n2)c2cc(C#CC(C)(C)O)ncc21 [Compound 148] | 7600 | – | 9100 |
| 46 | CC(O)(C#Cc1cc2c(-c3nc(N)ncc3F)cn(C3CN(C4CC4)C3)c2cn1)C1CC1 (single isomer, unassigned) [Compound 157] | 140 | – | 180 |
| 74 | COCc1cnc(N)nc1-c1cn(C(C)C)c2cnc(C#CC(C)(O)C3CC3)cc12 (stereo not shown) [Compound 143] | 170 | – | 270 |
| 47 | CC(O)(C#Cc1cc2c(-c3nc(N)ncc3F)cn(C3CCN(CCC(F)(F)F)C3)c2cn1)C1CC1 (stereo not shown) [Compound 152] | 75 | – | 48 |
| 74 | CC(O)(C#Cc1cc2c(-c3nc(N)ncc3F)cn(C3CCN(CCF)C3)c2cn1)C1CC1 (stereo not shown) [Compound 153] | 150 | – | 130 |
| 140 | CC(O)(C#Cc1cc2c(-c3nc(N)ncc3F)cn(C3CN(CC(F)(F)F)C3)c2cn1)C1CC1 (stereo not shown) [Compound 145] | 340 | – | 260 |
| 54 | CC(C)(O)C#Cc1cc2c(-c3nc(N)ncc3F)cn(C3CCN(CCF)C3)c2cn1 (stereo not shown) [Compound 151] | 45 | – | 46 |
| 200 | CC(O)(C#Cc1cc2c(-c3nc(N)ncc3F)cn(C3CN(CC4CCCC4)C3)c2cn1)C1CC1 (stereo not shown) [Compound 146] | 580 | – | 450 |
| 190 | COCCCN1CC(n2cc(-c3nc(N)ncc3F)c3cc(C#CC(C)(O)C4CC4)ncc32)C1 (stereo not shown) [Compound 156] | 360 | – | 320 |
| 37 | COCc1cnc(N)nc1-c1cn(C(C)C)c2cnc(C#CC(C)(C)O)cc12 [Compound 144] | 16 | – | 35 |
| 190 | CC(=O)N1CC(n2cc(-c3nc(N)ncc3F)c3cc(C#CC(C)(O)C4CC4)ncc32)C1 (stereo not shown) [Compound 154] | 2800 | – | 4700 |
